Laboratory results reported in EP4781984A1 (Beyang Therapeutics Co., Ltd., priority 2023, dated 2025).
“Also recorded” adds a separate entry of the source.

Columns and labels:
[1] = background statement on the known drug; cited from earlier work
[2] = Thermodynamic solubility test; assay type: physicochemical; conditions: buffer solution, aqueous buffer, thermodynamic from solid; positive compound
Method in brief: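 Samples sonicated 10 min, shaken 8 h at room temperature, re-sonicated and centrifuged at 13000 rpm for 15 min. Supernatant recentrifuged and analysed by LC-MS, with concentrations quantified against a 3–5 point calibration curve.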

[3] = Plasma and ocular tissue distribution after single ocular administration in Dutch Belted rabbits (Example 6); assay type: in vivo; conditions: single eye drop 1 mg/mL (0.05 mg/eye, 50 µL/eye), 0.5, 4 or 8 hours
Text: Detection of Plasma and Ocular Tissue Distribution of Compounds after Single Ocular Administration in Dutch Belted Rabbits
Age-related macular degeneration and diabetic retinopathy are associated with neovascularization in the posterior segment of the eye. A major problem with topical eye drops for treating posterior segment disorders is the inefficient delivery of the agent to the posterior segment sites due to the corneal and conjunctival barriers. Therefore, it is important to measure the distribution of compounds from ocular formulations in several major ocular tissues. […] This experiment used Dutch Belted rabbits. […]
Male Dutch Belted rabbits used in this experiment were purchased from Pizhou Dongfang Breeding Co., Ltd., with animal weights ranging from 1.5 to 2.5 kg. […] All prepared dosing formulations were freshly prepared on the day of administration, sampled, and the actual concentration of the dosing formulation was determined.
On the day of the experiment, animals were administered 1 mg/mL (0.05 mg/eye, 50 µL/eye). […] The concentrations of each analyte in rabbit ocular tissues and plasma obtained in this experiment were determined using an LC-MS/MS analytical method. […] BLOQ (Below the Limit of Quantification) is the lowest analyte concentration that can be quantified with acceptable precision and accuracy. […]

- solubility thermodynamic at 8 h [2]: < 2 µg/mL
SMILES: CNC(=O)c1ccccc1Sc1ccc2c(/C=C/c3ccccn3)n[nH]c2c1 [Axitinib]
- solubility [1]: < 2 µg/mL
- drug concentration in retina [3]: below the lower limit of quantification; also recorded: below BLOQ
